These are literature values, as cited in patent publication US9326930B2, “Calcium sequestration compositions and methods of treating skin pigmentation disorders and conditions” (NEOCUTIS S.A., priority 2009, dated 2016).

Series [1] concerns B16F0 melanoma cells. The note with it: L-forms, not D-forms.
The subject of series [2] is melanocyte-keratinocyte co-cultures. The following applies: intracellular calcium in keratinocytes chelated. For orientation: A change in cytosolic calcium serves as a functional read-out for many receptors and channels.
The target in series [3] is melanocortin receptor 1 (MC1R) (Homo sapiens, UniProt Q01726).
Sequence of melanocortin receptor 1 (MC1R) (Q01726 whole entry, species assumed): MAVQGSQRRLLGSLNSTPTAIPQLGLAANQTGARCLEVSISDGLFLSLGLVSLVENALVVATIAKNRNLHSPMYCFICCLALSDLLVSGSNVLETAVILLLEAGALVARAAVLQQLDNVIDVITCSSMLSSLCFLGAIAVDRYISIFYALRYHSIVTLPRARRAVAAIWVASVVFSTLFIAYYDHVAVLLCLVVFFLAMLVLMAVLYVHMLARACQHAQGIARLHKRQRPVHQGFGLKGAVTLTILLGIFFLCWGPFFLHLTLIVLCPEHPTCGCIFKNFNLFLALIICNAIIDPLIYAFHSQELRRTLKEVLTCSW

Consider `CC(C)C[C@H](N)C(=O)O` [L-leucine], for which, in series [1], the effect on pigmentation result was “hypopigmenting effects”. For the molecule `CC(=O)OCOC(=O)CN(CC(=O)OCOC(C)=O)c1ccccc1OCCOc1ccccc1N(CC(=O)OCOC(C)=O)CC(=O)OCOC(C)=O` [BAPTA-AM, 1,2-bis-(o-aminophenoxy)-ethane-N,N,N′,N′-tetraacetic acid tetra-acetoxymethyl ester], in series [2], the melanin transfer entry was “melanin transfer was inhibited”. Consider `NCC(=O)O` [glycine], for which the effect on pigmentation result in series [1] is “hypopigmenting effects”. In the case of `C=CCCCCCCCCC(=O)N[C@@H](Cc1ccccc1)C(=O)O` [undecylenoyl phenylalanine], the “affinity to MC1R” value in series [3] is listed as “affinity towards MC1R”. For the same molecule, in series [3] (in vitro), the “action on α-MSH” value is given as “antagonist of α-MSH”.

`CC[C@H](C)[C@H](N)C(=O)O` [L-isoleucine]: the effect on pigmentation entry in series [1] is given as “hypopigmenting effects”. Consider `C[C@H](N)C(=O)O` [L-alanine], for which, in series [1], the effect on pigmentation entry is “hypopigmenting effects”.
